Patent US20100285959A1, “HERBICIDAL MIXTURES” (priority 2006, published 2010)

How the values were obtained:
[1] = system: common lambsquarters (CHEAL); experiment: Test 22 growth chamber, postemergence; format: in vivo, Chenopodium album; settings: 25 DAA
Procedure: (§1) A test was conducted to evaluate the effects on winter barley (HORVW, Hordeum vulgare L.), winter wheat (TRZAW, Triticum aestivum L.), and several weed species of mixtures of Compound 2 with the commercial herbicides (2,4-dichlorophenoxy)acetic acid (2,4-D) and (4-chloro-2-methylphenoxy)acetic acid (MCPA), auxin mimics. […] Plants were treated postemergence at the 2-4 leaf growth stage, except KCHSC, SASKR and STEME which were in the 4-8 leaf growth stage. Each treatment was replicated one time. […] Plants were watered as needed. […] Results are from single replicates.

galium (GALAP) = experiment: Test 22 growth chamber, postemergence; format: in vivo, Galium aparine; settings: 25 DAA
Procedure: as §1

corn (ZEAMD) = experiment: Test 2 field trial, preemergence; format: in vivo, Zea mays ssp. indentata
Text: Corn seeds (hybrid ‘Pioneer 31G96’) were planted in mid spring season, 3.8 cm deep in a clay loam soil having 2% organic matter and a pH of 6.6. Plots were 6.1 m long by 3.0 m wide with rows spaced 76 cm apart. Seeds were spaced 15 cm apart within the rows. The field was managed using conventional tillage practices. […] A few of the weed species could not be evaluated at every timing. […] Results are the means of the three replicates.

common dandelion (TAROF) = experiment: Test 9 field trial, emerged weeds before corn planting; format: in vivo, Taraxacum officinale; settings: g a.i./ha: Cpd 2 100, Glyphosate 1540, Paraquat 1150
Procedure: (§2) Corn seeds (hybrid ‘Pioneer 34M91 RR’) were planted in mid spring season, about 3.8 cm deep in a silty clay loam soil having a pH of 6.7. Plots were 9.1 m long by 3.0 m. The field was managed using no-till practices. […] Compound 2 and paraquat treatments, alone and in combination, also included a surfactant. Glyphosate, alone and with Compound 2, included ammonium sulfate in the treatment mixture. […] The effects on the weeds in the treated plots and untreated control plots were recorded 7, 14, 23, 30 and 57 days after application. Most of the weed species could not be evaluated at every timing. Corn response was only evaluated 57 days after application. […] Results are the means of the three replicates.

shepherd's purse (CAPBP) = experiment: as above; format: in vivo, Capsella bursa-pastoris; settings: g a.i./ha: Cpd 2 100, Glyphosate 1540, Paraquat 1150
Procedure: as §2

common ragweed (AMBEL) = experiment: Test 14 field trial, preemergence, growth as percent of control; format: in vivo, Ambrosia artemisiifolia
Text: Corn seeds (hybrid ‘Pioneer 31G96 RR’) were planted in mid spring season, 3.8 cm deep in a clay loam soil having 2% organic matter and a pH of 6.6. Plots were 6.1 m long by 3.0 m wide with rows spaced 76 cm apart. Seeds were spaced 15 cm apart within the rows. The field was managed using conventional tillage practices. […] Yellow nutsedge was only evaluated 19 and 28 days after application, and ivyleaf morningglory could only be evaluated 28 days after application. […] Results are the means of the three replicates. This growth inhibition data was converted to results in the form of “plant growth as a percent of control plant growth” using the calculation “100 minus growth inhibition”. […] For “growth as a percent of control” data, Colby's Equation calculates the expected additive effect of herbicidal mixtures having two active ingredients as follows:
Ga+b=GaGb/100 • wherein Ga+b is the growth as a percent of control of plants treated with the mixture expected from additive contribution of the individual components, • Ga is the observed growth as a percent of control of plants treated with the first active ingredient at the same use rate as in the mixture, and • Gb is the observed growth as a percent of control of plants treated with the second active ingredient at the same use rate as in the mixture. For mixtures having three active ingredients, Colby's Equation to calculate the expected additive effect of herbicidal mixtures is as follows:
Ga+b+c=GaGbGc/10,000 • wherein Ga and Gb are as defined above and • Ga+b+c is the growth as a percent of control of plants treated with the mixture expected from additive contribution of the individual components, and • Gc is the observed growth as a percent of control of plants treated with the third active ingredient at the same use rate as in the mixture. When these two forms of Colby's Equation are used, if the observed effects on weeds are less than the expected values, the mixture is synergistic.

morningglory (IPOSS) = experiment: Test 7 field trial, preemergence; format: in vivo, Ipomoea L. spp.
Procedure: Plots were 7.6 m long by 3.0 m wide with rows spaced 76 cm apart. Seeds were spaced 15 cm apart within the rows. The field was managed using conventional tillage practices. […] Wild radish was evaluated 14 and 28 days after application. […] Results are the means of the three replicates.

curly dock (RUMCR) = experiment: Test 3 field trial, emerged weeds before corn planting; format: in vivo, Rumex crispus; settings: Cpd 2 100, glyphosate 1540, paraquat 1150 g a.i./ha, alone or combined
Text: Corn seeds (hybrid ‘Pioneer 33J56’) were planted in early spring season, 3.8 cm deep in a silt loam soil having 2.4% organic matter and a pH of 6. Plots were 6.1 m long by 2.7 m wide with rows spaced 91.4 cm apart. The field was managed using no-till practices. […] Compound 2 and paraquat treatments, alone and in combination, also included a surfactant. Glyphosate, alone and with Compound 2, included ammonium sulfate in the treatment mixture. […] The effects on the weeds in the treated plots and untreated control plots were recorded 30, 42, 46 and 68 days after application. Most of the weed species could not be evaluated at every timing. Corn response was not evaluated because the growth was highly variable depending on the efficacy of the weed control treatments. […] Results are the means of the three replicates.

[2] = 2,4-D or MCPA alone 250 g a.i./ha

O=C(O)COc1ccc(Cl)cc1Cl [2,4-D, (2,4-dichlorophenoxy)acetic acid]
Postemergence CHEAL Obs [1, 2]: 60 | Postemergence GALAP Obs (galium (GALAP); [2]): 30

CCNc1nc(Cl)nc(NC(C)C)n1 [Atrazine, atrazine, reference compound]
ZEAMD Obs (corn (ZEAMD); 18 DAA, g a.i./ha: Cpd 2 25, Atrazine 250): 8 | ZEAMD Obs (corn (ZEAMD); 18 DAA, g a.i./ha: Cpd 2 50, Atrazine 500): 5 | ZEAMD Obs (corn (ZEAMD); 18 DAA, g a.i./ha: Cpd 2 75, Atrazine 750): 15 | ZEAMD Obs (corn (ZEAMD); 18 DAA, g a.i./ha: Cpd 2 100, Atrazine 1000): 7 | ZEAMD Obs (corn (ZEAMD); 18 DAA, g a.i./ha: Cpd 2 150, Atrazine 1500): 5 | ZEAMD Obs (corn (ZEAMD); 28 DAA, g a.i./ha: Cpd 2 25, Atrazine 250): 2 | ZEAMD Obs (corn (ZEAMD); 28 DAA, g a.i./ha: Cpd 2 50, Atrazine 500): 7 | ZEAMD Obs (corn (ZEAMD); 28 DAA, g a.i./ha: Cpd 2 75, Atrazine 750): 12 | ZEAMD Obs (corn (ZEAMD); 28 DAA, g a.i./ha: Cpd 2 100, Atrazine 1000): 8 | ZEAMD Obs (corn (ZEAMD); 28 DAA, g a.i./ha: Cpd 2 150, Atrazine 1500): 3 | ZEAMD Obs (corn (ZEAMD); 55 DAA, g a.i./ha: Cpd 2 25, Atrazine 250): 0 | ZEAMD Obs (corn (ZEAMD); 55 DAA, g a.i./ha: Cpd 2 50, Atrazine 500): 0 | ZEAMD Obs (corn (ZEAMD); 55 DAA, g a.i./ha: Cpd 2 75, Atrazine 750): 0 | ZEAMD Obs (corn (ZEAMD); 55 DAA, g a.i./ha: Cpd 2 100, Atrazine 1000): 0 | ZEAMD Obs (corn (ZEAMD); 55 DAA, g a.i./ha: Cpd 2 150, Atrazine 1500): 0

COC(=O)c1nc(C2CC2)nc(N)c1Cl [Compound 2, methyl 6-amino-5-chloro-2-cyclopropyl-4-pyrimidinecarboxylate]
TAROF Obs (common dandelion (TAROF); 7 DAA): 37% | TAROF Obs (common dandelion (TAROF); 14 DAA): 38% | TAROF Obs (common dandelion (TAROF); 23 DAA): 60% | TAROF Obs (common dandelion (TAROF); 30 DAA): 65% | TAROF Obs (common dandelion (TAROF); 57 DAA): 84% | CAPBP Obs (shepherd's purse (CAPBP); 7 DAA): 23% | CAPBP Obs (shepherd's purse (CAPBP); 14 DAA): 17% | CAPBP Obs (shepherd's purse (CAPBP); 23 DAA): 7% | CAPBP Obs (shepherd's purse (CAPBP); 30 DAA): 0% | CAPBP Obs (shepherd's purse (CAPBP); 57 DAA): 0% | Obs growth % of control (common ragweed (AMBEL); 19 DAA, 75 g a.i./ha): 75% | Obs growth % of control (common ragweed (AMBEL); 19 DAA, 100 g a.i./ha): 55% | Obs growth % of control (common ragweed (AMBEL); 28 DAA, 75 g a.i./ha): 20% | Obs growth % of control (common ragweed (AMBEL); 28 DAA, 100 g a.i./ha): 15% | Obs growth % of control (common ragweed (AMBEL); 56 DAA, 75 g a.i./ha): 17% | Obs growth % of control (common ragweed (AMBEL); 56 DAA, 100 g a.i./ha): 12% | Postemergence CHEAL Obs ([1]; Cpd 2 alone 4 g a.i./ha): 50 | Postemergence CHEAL Obs ([1]; Cpd 2 alone 8 g a.i./ha): 50 | Postemergence CHEAL Obs ([1]; Cpd 2 alone 16 g a.i./ha): 65 | ZEAMD Obs (corn (ZEAMD); hybrid Pioneer 31G96, corn (Zea mays ssp. indentata), in vivo, 55 days after application): 0 | Postemergence GALAP Obs (galium (GALAP); Cpd 2 alone 4 g a.i./ha): 65 | Postemergence GALAP Obs (galium (GALAP); Cpd 2 alone 8 g a.i./ha): 90 | Postemergence GALAP Obs (galium (GALAP); Cpd 2 alone 16 g a.i./ha): 100 | IPOSS Obs (morningglory (IPOSS); 14 DAA, 125 g a.i./ha): 100% | IPOSS Obs (morningglory (IPOSS); 14 DAA, 250 g a.i./ha): 100% | IPOSS Obs (morningglory (IPOSS); 14 DAA, 500 g a.i./ha): 100% | IPOSS Obs (morningglory (IPOSS); 28 DAA, 125 g a.i./ha): 100% | IPOSS Obs (morningglory (IPOSS); 28 DAA, 250 g a.i./ha): 100% | IPOSS Obs (morningglory (IPOSS); 28 DAA, 500 g a.i./ha): 100% | IPOSS Obs (morningglory (IPOSS); 62 DAA, 125 g a.i./ha): 100% | IPOSS Obs (morningglory (IPOSS); 62 DAA, 500 g a.i./ha): 100% | RUMCR Obs (curly dock (RUMCR); 30 DAA): 62% | RUMCR Obs (curly dock (RUMCR); 42 DAA): 37% | RUMCR Obs (curly dock (RUMCR); 46 DAA): 54% | RUMCR Obs (curly dock (RUMCR); 68 DAA): 67%

O=C(O)CNCP(=O)(O)O [Glyphosate]
TAROF Obs (common dandelion (TAROF); 7 DAA): 37% | TAROF Obs (common dandelion (TAROF); 14 DAA): 62% | TAROF Obs (common dandelion (TAROF); 23 DAA): 83% | TAROF Obs (common dandelion (TAROF); 30 DAA): 90% | TAROF Obs (common dandelion (TAROF); 57 DAA): 88% | CAPBP Obs (shepherd's purse (CAPBP); 7 DAA): 52% | CAPBP Obs (shepherd's purse (CAPBP); 14 DAA): 73% | CAPBP Obs (shepherd's purse (CAPBP); 23 DAA): 88% | CAPBP Obs (shepherd's purse (CAPBP); 30 DAA): 98% | CAPBP Obs (shepherd's purse (CAPBP); 57 DAA): 100% | RUMCR Obs (curly dock (RUMCR); 30 DAA): 75% | RUMCR Obs (curly dock (RUMCR); 42 DAA): 61% | RUMCR Obs (curly dock (RUMCR); 46 DAA): 82% | RUMCR Obs (curly dock (RUMCR); 68 DAA): 93%

CCc1cccc(C)c1N(C(=O)CCl)[C@@H](C)COC [S-Metolachlor, S-metolachlor, reference compound]
Obs growth % of control (common ragweed (AMBEL); 19 DAA, 1870 g a.i./ha): 100% | Obs growth % of control (common ragweed (AMBEL); 28 DAA, 1870 g a.i./ha): 75% | Obs growth % of control (common ragweed (AMBEL); 56 DAA, 1870 g a.i./ha): 93% | IPOSS Obs (morningglory (IPOSS); 14 DAA, 1000 g a.i./ha): 48% | IPOSS Obs (morningglory (IPOSS); 28 DAA, 1000 g a.i./ha): 50% | IPOSS Obs (morningglory (IPOSS); 62 DAA, 1000 g a.i./ha): 13%
